The text below walks through data of patent publication US12214059B2, “Cleavable radioligands for targeting cell surface receptors and uses thereof” (Full-Life Te[…] Limited, priority 2021, dated 2025).

One series addresses T1, PSMA (Homo sapiens, UniProt Q04609).
T1 construct: host or cells: LNCaP cells
Description: Cell-based radioligand competitive binding assay (^125I-C-8, LNCaP cells). The settings on record: for Relative Binding Affinity: C-1 = 1.00. On the procedure: The culture medium was replaced with fresh medium every 2-3 days. Experiments were performed with cells at 70-80% confluence.
The final volume in each well was maintained at 200 μL and insufficient volume was adjusted by the binding buffer.

A short description of series [1]: Ex-vivo mouse plasma stability study of ^177Lu-labeled compounds. Conditions: 37° C. Type of series: in vitro ADME. On the procedure: Plasma Stability Study (Mouse and Human)
Mouse blood was collected via cardiac puncture of the left ventricle. Blood was placed into heparin-coated microfuge tubes and then centrifuged at 3500 rpm for 10 min to separate plasma for stability studies. Human plasma was purchased directly.
At each time point (0, 1, 2, 4, 24, 48 72 h), an aliquot of 25 μL sample was taken and mixed with 100 μL methanol containing 1% formic acid, vertex for 30-60 sec, then centrifuged at 20000 rpm for 10 min. 100 μL supernatant was collected and diluted with 40 μL H2O. 100 μL of the resulting mixture was injected to radio-HPLC for stability assessment, as shown examples FIG. 2 and FIG. 3. The best-fit T½ value of test compounds were calculated by fitting the data with linear or non-linear regression using GraphPad Prism 8.0.1.

For series [2], the system named is PC-3 PIP tumor-bearing mice. The experiment in a line: Biodistribution study in SCID mice bearing PC3-PIP tumor. Type of series: in vivo, mouse. The settings on record: PC3 PIP tumor-bearing mice. On the procedure:
Biodistribution Study in SCID Mice Bearing PC3-PIP Tumor
Severe combined immunodeficient (ICR-SCID) mice from the Institute of Cancer Research (Taconic Farms, Germantown, NY) were utilized for these studies. […] These mice received bilateral subcutaneous rear flank injections of approximately 10×10^6 PC-3 PIP cells (prostate cancer cell PC-3 stably expressing human PSMA) suspended in 100 μL of 0.9% NaCl. […] The tissues and organs were weighed, counted in a PerkinElmer Wizard 3 automatic γ counter, and the percent injected dose (% ID) and % ID/g of each organ or tissue were calculated, as shown in Tables 5-24 and FIG. 1 and FIG. 2.

The test system of another series is LNCap tumor-bearing mice. Description: Biodistribution study in CB-17 SCID mice bearing LNCap tumor. It counts as in vivo, mouse. On the procedure: Biodistribution Study in CB-17 SCID Mice Bearing LNCap Tumor
All animal care and experimental procedure were performed by following the animal protocols approved by the ethics committee of China Institute of Radiation Protection. The CB-17 SCID mice (Charles River, Beijing) were utilized for these studies. […] These mice received subcutaneous rear flank injections of approximately 4×10^6 LNCap cells suspended in 200 μL of phosphate-buffered saline (PBS) and Matrigel (Corning) (1/1).

Usually IC50 stands for the concentration at which inhibition is half-maximal.

The structures appear in SMILES notation.

T1 sequence (Q04609 whole entry): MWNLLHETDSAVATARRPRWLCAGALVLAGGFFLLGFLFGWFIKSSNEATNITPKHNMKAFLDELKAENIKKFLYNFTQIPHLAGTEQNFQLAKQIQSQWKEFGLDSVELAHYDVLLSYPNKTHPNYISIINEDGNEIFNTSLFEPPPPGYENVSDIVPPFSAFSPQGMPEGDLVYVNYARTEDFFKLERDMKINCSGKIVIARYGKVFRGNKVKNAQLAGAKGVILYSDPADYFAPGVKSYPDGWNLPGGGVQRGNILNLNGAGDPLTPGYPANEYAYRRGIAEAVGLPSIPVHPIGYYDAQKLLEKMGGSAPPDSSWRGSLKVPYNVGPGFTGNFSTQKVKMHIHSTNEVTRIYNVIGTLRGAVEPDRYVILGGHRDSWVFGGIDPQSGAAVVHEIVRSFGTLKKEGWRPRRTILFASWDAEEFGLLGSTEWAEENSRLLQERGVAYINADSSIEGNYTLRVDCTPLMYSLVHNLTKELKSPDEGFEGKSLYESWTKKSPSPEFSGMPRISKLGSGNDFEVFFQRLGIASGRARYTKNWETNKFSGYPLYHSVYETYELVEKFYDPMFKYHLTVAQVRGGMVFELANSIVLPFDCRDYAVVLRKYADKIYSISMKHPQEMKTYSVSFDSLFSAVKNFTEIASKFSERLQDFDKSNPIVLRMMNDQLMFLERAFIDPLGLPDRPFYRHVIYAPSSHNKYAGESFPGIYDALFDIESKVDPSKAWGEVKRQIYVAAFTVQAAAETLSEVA

In the case of `O=C(O)CC[C@H](NC(=O)N[C@@H](CCCCNC(=O)[C@H](Cc1ccc2ccccc2c1)NC(=O)C1CCC(CNC(=O)CN2CCN(CC(=O)O)CCN(CC(=O)O)CCN(CC(=O)O)CC2)CC1)C(=O)O)C(=O)O` (stereo partly drawn) [Example C-1, (((S)-1-carboxy-5-((S)-3-(naphthalen-2-yl)-2-((1r,4S)-4-((2-(4,7,10-tris(carboxymethyl)-1,4,7,10-tetraazacyclododecan-1-yl)acetamido)methyl)cyclohexane-1-carboxamido)propanamido)pentyl)carbamoyl)-L-glutamic acid tetra(trifluoroacetic acid), reference compound], the “Relative Binding Affinity” value on PSMA (based on the mean value of the IC50 number) and at PSMA (relative) was 1.00 each time. Also, on PSMA (log10 of IC50 (negative values), nonlin fit, LNCaP cells, ^125I-C-8 radioligand), the “LogIC50 Mean” value is recorded as −8.544. Moreover, the IC50 at PSMA (nonlin fit, LNCaP cells, ^125I-C-8 radioligand, scientific notation, unit inferred) was 2.86 nM. Moreover, the “% Remaining 0 min” value in series [1] (0 min) came to 100%. Also, the “% Remaining 1 h” value in series [1] (1 h) is reported as 100%. Besides, the “% Remaining 4 h” value in series [1] (4 h) is listed as 100%. Moreover, the “% Remaining 24 h” value in series [1] (24 h) is given as 100%. In series [1] (48 h), the “% Remaining 48 h” value was found to be 100%. Also, in series [1] (72 h), the “% Remaining 72 h” value was determined as 100%. Moreover, in series [1] (* = value obtained using nonlinear regression), the “T½ (h)” value is “Stable”. The “T/K at 4 h (tumor uptake/kidney uptake)” value in series [2] (4 h) was found to be 7.0; with LNCap tumor-bearing mice (LNCap tumor-bearing mice, 4 h), 2.52. The “T at 24 h (tumor uptake)” value is 10.4 in series [2] (24 h) and 10.0 in the series with LNCap tumor-bearing mice (LNCap tumor-bearing mice). Further, the “T/K at 24 h (tumor uptake/kidney uptake)” value was 57 in series [2] (24 h) and 7.04 in the series with LNCap tumor-bearing mice (LNCap tumor-bearing mice). Besides, the “T at 96 h (tumor uptake)” value in series [2] (96 h) is 7.3; in the series on LNCap tumor-bearing mice (LNCap tumor-bearing mice, 96 h) it was 10.1. Moreover, the “T/K at 96 h (tumor uptake/kidney uptake)” value in series [2] (96 h) amounted to 182. Moreover, the “T/K at 96 h (tumor uptake/kidney uptake), *value at 72 h” value with LNCap tumor-bearing mice (LNCap tumor-bearing mice, value at 72 h) is 15.5*.

On to `Cc1ccc(CCCC(=O)NCCCC[C@H](NC(=O)CN2CCN(CC(=O)O)CCN(CC(=O)O)CCN(CC(=O)O)CC2)C(=O)NCC2CCC(C(=O)N[C@@H](Cc3ccc4ccccc4c3)C(=O)NCCCC[C@H](NC(=O)N[C@@H](CCC(=O)O)C(=O)O)C(=O)O)CC2)cc1` (stereo partly drawn) [Example C-10, DOTA-Lys(pTBA)-Trx-2NaI-eKuE], for which the “Relative Binding Affinity” value at PSMA (relative) worked out at 0.92. In the series on LNCap tumor-bearing mice (LNCap tumor-bearing mice), the “T at 24 h (tumor uptake)” value stood at 46.5 and the “T/K at 24 h (tumor uptake/kidney uptake)” value is 0.89. Moreover, in the series on LNCap tumor-bearing mice (LNCap tumor-bearing mice, 96 h), the “T at 96 h (tumor uptake)” value is 34.9 and the “T/K at 96 h (tumor uptake/kidney uptake)” value was found to be 3.17. The “uptake ratio between tumor to kidney” value in the series on LNCap tumor-bearing mice (compared to PSMA-617 (C-1)) is “poor uptake ratio between tumor to kidney”.
